Results: ChEMBL document CHEMBL5113369, “A review on the structure and pharmacological activity of phenylethanoid glycosides” (Eur J Med Chem, 2021)

Columns and labels:
Assay type in all cases: ADME, organism-based, Canis lupus familiaris
Conditions in all cases: in vivo, dose 10-40 mg/kg
[1] = Half life in Beagle dog at 10 to 40 mg/kg, po measured up to 8 hrs by LC-MS/MS analysis
[2] = Oral bioavailability in Beagle dog at 10 to 40 mg/kg measured up to 8 hrs by LC-MS/MS analysis
[3] = Tmax in Beagle dog at 10 to 40 mg/kg, po measured up to 8 hrs by LC-MS/MS analysis

SMILES: C[C@@H]1O[C@@H](O[C@@H]2[C@@H](O)[C@H](OCCc3ccc(O)c(O)c3)O[C@H](CO)[C@H]2OC(=O)/C=C/c2ccc(O)c(O)c2)[C@H](O)[C@H](O)[C@H]1O [ACETOSIDE]
- half-life [1]: 1.5 h
- bioavailability [2]: 4%
- Tmax [3]: 0.5 h
